Earlier results on one molecule are cited in patent US11911501B1, “Biocompatible resin composition and method of manufacturing dissolvable microneedles for transdermal delivery using biocompatible resin” (Florida A&M University, priority 2020, dated 2024).

The data set relates to clonal SV 40 large T-antigen transfected human pulp-derived cells (tHPC). The following applies: reference [1].

With `Cc1cc(C)c(C(=O)P(=O)(c2ccccc2)c2ccccc2)c(C)c1` [TPO, diphenyl(2,4,6-trimethylbenzoyl)phosphine oxide], the toxicity result is listed as “cause toxicity”.
